Experimental data: patent publication US4906624A, “6-(((Substituted)pyridin-3-yl)alkyl)-and alkenyl)-tetrahydro-4-hydroxypyran-2-one inhibitors of cholesterol biosynthesis” (Warner-Lambert Company, priority 1988, dated 1990)
Where a name gives a salt, the structure may show the parent alone.

tested on: Cholesterol Synthesis; assay: AICS screen: inhibition of cholesterol synthesis in rats (plasma [14C]cholesterol after sodium [1-14C]-acetate); format: in vivo; settings: 1.0 mg/kg, single dose, oral gavage, male Sprague-Dawley rats fed 5% cholestyramine; acetate one hour after drug, blood after 50 minutes
Experimental: The ability of compounds of the present invention to inhibit the biosynthesis of cholesterol was also measured by a method (designated AICS screen) which utilizes the procedure described by A. W. Alberts et al, Proc. Natl. Acad. Sci., (1980), 77, pp 3957-3961.
In this method male Sprague-Dawley rats (200 g body weight) previously fed 5% cholestyramine for three days were randomly divided into groups (N=5/group) and given a single dose of vehicle (controls) or compound by an oral gavage at the indicated doses. One hour after drug dosing, all rats were injected intraperitoneally with sodium[1-^14 C]-acetate (18.75 μCi/rat in 0.2 ml saline). After 50 minutes, blood samples were taken, plasma obtained by centrifugation, and plasma [^14 C]cholesterol measured after saponification and extraction.

Row | SMILES | % Inhibition of Cholesterol Synthesis
1 | CCCNC(=O)c1c(C(C)C)nc(C(C)C)c(/C=C/C2CC(O)CC(=O)O2)c1-c1ccc(F)cc1 (stereo not drawn) [Example 32, [2α,4α(E)]-4-(4-fluorophenyl)-2,6-bis(1-methylethyl)-n-propyl-5-[2-(tetrahydro-4-hydroxy-6-oxo-2H-pyran-2-yl)ethenyl]-3-pyridinecarboxamide] | -25%

same assay, conditions: Rattus norvegicus, 50 min; 1.0 mg/kg, single dose, oral gavage, male Sprague-Dawley rats fed 5% cholestyramine; acetate one hour after drug, blood after 50 minutes

Row | SMILES | change in vivo at 1 mg/kg
2 | Cc1cc(-c2ccc(F)cc2)c(/C=C/[C@@H]2C[C@@H](O)CC(=O)O2)c(C(C)C)n1 (relative stereo) [Example 19, [4α,6β(E)]-6-[2-[4-(4-fluorophenyl)-6-methyl-2-(1-methylethyl)-3-pyridinyl]ethenyl]tetrahydro-4-hydroxy-2H-pyran-2-one] | -72%
3 | Cc1cc(-c2ccc(F)cc2)c(/C=C/[C@@H](O)C[C@@H](O)CC(=O)O)c(C(C)C)n1 (relative stereo) [Example 21, [R*,S*-(E)]-7-[4-(4-fluorophenyl)-6-methyl-2-(1-methylethyl)-3-pyridinyl]-3,5-dihydroxy-6-heptenoic acid, hemicalcium salt] | -67%
4 | Cc1cc(-c2ccc(F)cc2)c(/C=C/[C@@H]2C[C@@H](O)CC(=O)O2)c(C(F)(F)F)n1 (relative stereo) [Example 22, [4α,6β(E)]-6-[2-[4-(4-fluorophenyl)-6-methyl-2-(trifluoromethyl)-3-pyridinyl]ethenyl]tetrahydro-4-hydroxy-2H-pyran-2-one] | -59%
5 | O=C1C[C@H](O)C[C@@H](/C=C/c2c(-c3ccc(F)cc3)cc(C(F)F)nc2C(F)(F)F)O1 (relative stereo) [Example 24] | -54%
6 | CCc1cc(-c2ccc(F)cc2)c(/C=C/[C@@H]2C[C@@H](O)CC(=O)O2)c(CC)n1 (relative stereo) [Example 26, [4α,6β(E)]-6-[2-[2,6-diethyl-4(4-fluorophenyl)-3-pyridinyl]ethenyl]tetrahydro-4-hydroxy-2H-pyran-2-one] | -60%
7 | CC(C)c1nc(-c2ccccc2)cc(-c2ccc(F)cc2)c1/C=C/[C@@H]1C[C@@H](O)CC(=O)O1 (relative stereo) [Example 30, [4α,6β(E)]-6-[2-[4-(4-fluorophenyl)-2-(1-methylethyl)-6-phenyl-3-pyridinyl]ethenyl]tetrahydro-4-hydroxy-2H-pyran-2-one] | -64%
8 | CCc1nc(CC)c(C(=O)OC)c(-c2ccc(F)cc2)c1/C=C/[C@@H]1C[C@@H](O)CC(=O)O1 (relative stereo) [Example 34, [2α,4β(E)]-2,6-diethyl-4-(4-fluorophenyl)-5-[2-(tetrahydro-4-hydroxy-6-oxo-2H-pyran-2-yl)ethenyl]-3-pyridinecarboxylic acid, methyl ester] | -57%
9 | CCc1nc(CC)c(CO)c(-c2ccc(F)cc2)c1/C=C/[C@@H]1C[C@@H](O)CC(=O)O1 (relative stereo) [Example 36] | -68%
10 | COc1c(C)nc(C(C)C)c(/C=C/[C@@H]2C[C@@H](O)CC(=O)O2)c1-c1ccc(F)cc1 (relative stereo) [Example 38, [4α,6β(E)]-6-[2-[4-(4-fluorophenyl)-5-methoxy-6-methyl-2-(1-methylethyl)-3-pyridinyl]ethenyl]tetrahydro-4-hydroxy-2H-pyran-2-one] | -67%
11 | C=Cc1c(C)nc(C(C)C)c(/C=C/[C@@H]2C[C@@H](O)CC(=O)O2)c1-c1ccc(F)cc1 (relative stereo) [Example 40, [4α,6β(E)]-6-[2-[5-ethenyl-4-(4-fluorophenyl)-6-methyl-2-(1-methylethyl)-3-pyidinyl]ethenyl]tetrahydro-4-hydroxy-2H-pyran-2-one] | -68%
12 | Cc1cc(-c2ccc(F)cc2)c(/C=C/[C@@H]2C[C@@H](O)CC(=O)O2)c(C(C)C)[n+]1[O-] (relative stereo) [Example 42, 4α,6β(E)-6-[2-[4-(4-fluorophenyl)-6-methyl-2-(1-methylethyl)-3-pyridinyl]ethenyl]tetrahydro-4-hydroxy-2H-pyran-2-one, N-oxide] | -69%

same assay, conditions: Rattus norvegicus, 50 min; 1.5 mg/kg, single dose, oral gavage, male Sprague-Dawley rats fed 5% cholestyramine; acetate one hour after drug, blood after 50 minutes

Row | SMILES | change in vivo at 1.5 mg/kg
13 | Cc1cc(C)c(/C=C/[C@@H]2C[C@@H](O)CC(=O)O2)c(-c2ccc(F)cc2)n1 (relative stereo) [Example 28, [4α,6β(E)]-6-[2-[2-(4-fluorophenyl)-4,6-dimethyl-3-pyridinyl]ethenyl]tetrahydro-4-hydroxy-2H-pyran-2-one] | -64%
